Data set [1] deals with Barley. Description: Phytotoxicity of herbicide/safener combinations in cereals, glasshouse post-emergence. The note with it: no safener, 4 weeks after treatment. It counts as in vivo. The protocol:
(§1) Various crop plants are grown in plastic pots with a diameter of 9 cm in a glasshouse to the stated stage and then treated with the particular herbicide or with a mixture of the herbicide and the safener by the post-emergence method. This entails the herbicide of the formula (A) and the compounds of the formula (B) being applied in the form of aqueous suspensions or emulsions with a water application rate which converts to 300 l/ha. 4 weeks after the treatment, the plants are assessed visually for every type of damage by the applied herbicides, taking particular account of the extent of persistent growth inhibition. The evaluation takes place in percentages (scale from 0 to 100%) compared with untreated controls.

In data set [2] the test system is Wheat. The data set is described as above. It counts as in vivo. Conditions: no safener, 4 weeks after treatment. How it is done: as §1
The subject of data set [3] is ALMY. Description: Herbicidal activity on grasses, post-emergence. The note with it: no safener, 4-leaf stage. The class given is in vivo, Alopecurus myosuroides. The protocol:
as §1

Data set [4] concerns APSP. Nature of the data set: Herbicidal activity on grasses, post-emergence. Conditions: no safener, 4-leaf stage. The class given is in vivo, Apera spica-venti. The protocol: as §1
Data set [5] deals with AVFA. Nature of the data set: Herbicidal activity on grasses, post-emergence. It counts as in vivo, Avena fatua. The note with it: no safener, 4-leaf stage. The protocol:
as §1

Data set [6] concerns POAN. Description: Herbicidal activity on grasses, post-emergence. The class given is in vivo, Poa annua. Conditions: no safener, 4-leaf stage. How it is done: as §1
Data set [7] deals with SVFA. Nature of the data set: Effect and selectivity in corn: herbicidal effect. The class given is in vivo. The protocol: as §1
Data set [8] relates to ECCG. Nature of the data set: Effect and selectivity in corn: herbicidal effect. The note with it: start of tillering (4 to 5 leaves). The class given is in vivo, Echinochloa crus-galli. The protocol: as §1
Data set [9] relates to SOHA. Description: Effect and selectivity in corn: herbicidal effect. It counts as in vivo, Sorghum halepense. The note with it: 3 leaves. The protocol:
as §1

The test system of data set [10] is Corn. Nature of the data set: Effect and selectivity in corn: phytotoxicity. It counts as in vivo. Conditions: corn 4 leaves. How it is done: as §1

As for `COC(=O)c1ccc(NC(C)=O)cc1S(=O)(=O)NC(=O)Nc1nc(OC)cc(OC)n1` [A1, N-(4,6-Dimethoxypyrimidin-2-ylaminocarbonyl)-2-methoxycarbonyl-5-acetylaminobenzenesulfonamide], the “Phytotoxicity Barley” value in data set [1] (dose A 10 g AS/ha) came out at 50%; in data set [1] (dose A 20 g AS/ha), 80%. Further, the “Phytotoxicity Wheat” value in data set [2] (dose A 10 g AS/ha) stood at 25%; in [2] (dose A 20 g AS/ha), 50%.

Take `COC(=O)c1ccc(CN(C)C=O)cc1S(=O)(=O)NC(=O)Nc1nc(OC)cc(OC)n1.[Na]` [A2, N-(4,6-Dimethoxypyrimidin-2-ylaminocarbonyl)-2-methoxycarbonyl-5-(N-formyl-N-methylaminomethyl)benzenesulfonamide sodium salt]: the “Phytotoxicity Barley” value in [1] (dose A 10 g AS/ha) is 40%; in data set [1] (dose A 20 g AS/ha), 80%. Further, the results for the “Phytotoxicity Wheat” value in [2] (dose A 10 g AS/ha) and in [2] (dose A 20 g AS/ha) were 20% and 60%, respectively.

Regarding `COC(=O)c1ccc(NC(C)=O)cc1S(=O)(=O)NC(=O)Nc1nc(OC)cc(OC)n1.[Na]` [A3, N-(4,6-Dimethoxypyrimidin-2-ylaminocarbonyl)-2-methoxycarbonyl-5-acetylaminobenzenesulfonamide sodium salt], the “Phytotoxicity Barley” value in data set [1] (dose A 10 g AS/ha) is recorded as 60%; in [1] (dose A 20 g AS/ha), 95%. The “Phytotoxicity Wheat” value in data set [2] (dose A 10 g AS/ha) stood at 30%; in data set [2] (dose A 20 g AS/ha), 65%.

On to `CCC(=O)N(C)c1ccc(C(=O)OC)c(S(=O)(=O)NC(=O)Nc2nc(OC)cc(OC)n2)c1.[Na]` [A4, N-(4,6-Dimethoxypyrimidin-2-ylaminocarbonyl)-2-methoxycarbonyl-5-(N-methyl-N-propionylamino)benzenesulfonamide sodium salt], for which the results for the “Phytotoxicity Barley” value in data set [1] (dose A 20 g AS/ha) and in data set [1] (dose A 40 g AS/ha) were 30% and 80%, respectively. Also, the entries for the “Phytotoxicity Wheat” value in data set [2] (dose A 20 g AS/ha) and in data set [2] (dose A 40 g AS/ha) were 15% and 40%, respectively.

Consider `COC(=O)c1ccc(N(C)C(=O)C(C)C)cc1S(=O)(=O)NC(=O)Nc1nc(OC)cc(OC)n1.[Na]` [A5, N-(4,6-Dimethoxypyrimidin-2-ylaminocarbonyl)-2-methoxycarbonyl-5-(N-isopropionylmethylamino)benzenesulfonamide sodium salt], for which the “Phytotoxicity Barley” value in data set [1] (dose A 20 g AS/ha) was determined as 25%; in data set [1] (dose A 40 g AS/ha), 50%. Also, the “Phytotoxicity Wheat” value stood at 5% in data set [2] (dose A 20 g AS/ha) and 20% in [2] (dose A 40 g AS/ha). Also, the figures for the “% effect on ALMY” value in [3] (dose A 10 g AS/ha), in [3] (dose A 20 g AS/ha) and in data set [3] (dose A 40 g AS/ha) were 95%, 99% and 100%, respectively. Also, the “% effect on APSP” value amounted to 98% in [4] (dose A 10 g AS/ha), 100% in data set [4] (dose A 20 g AS/ha) and 100% in [4] (dose A 40 g AS/ha). Moreover, the “% effect on AVFA” value in data set [5] (dose A 10 g AS/ha) stood at 85%; in data set [5] (dose A 20 g AS/ha) it was 99%; in data set [5] (dose A 40 g AS/ha), 100%. The “% effect on POAN” value in [6] (dose A 10 g AS/ha) is reported as 98%; in data set [6] (dose A 20 g AS/ha), 100%; in [6] (dose A 40 g AS/ha), 100%.

In the case of `COC(=O)NCc1ccc(C(=O)OC)c(S(=O)(=O)NC(=O)Nc2nc(OC)cc(OC)n2)c1.[Na]` [A6, N-(4,6-Dimethoxypyrimidin-2-ylaminocarbonyl)-2-methoxycarbonyl-5-(N-methoxycarbonylaminomethyl)benzenesulfonamide sodium salt], the results for the “Phytotoxicity Barley” value in data set [1] (dose A 20 g AS/ha) and in data set [1] (dose A 40 g AS/ha) were 30% and 85%, respectively. The “Phytotoxicity Wheat” value in data set [2] (dose A 20 g AS/ha) is 15%; in data set [2] (dose A 40 g AS/ha), 40%. The “% effect on ALMY” value in data set [3] (dose A 10 g AS/ha) is reported as 99%; in data set [3] (dose A 20 g AS/ha) it was 100%; in data set [3] (dose A 40 g AS/ha), 100%. For the same compound, the “% effect on APSP” value is reported as 99% in [4] (dose A 10 g AS/ha), 100% in [4] (dose A 20 g AS/ha) and 100% in [4] (dose A 40 g AS/ha). For the same compound, the “% effect on AVFA” value turned out to be 80% in [5] (dose A 10 g AS/ha), 90% in [5] (dose A 20 g AS/ha) and 100% in data set [5] (dose A 40 g AS/ha). In addition, the entries for the “% effect on POAN” value in data set [6] (dose A 10 g AS/ha), in [6] (dose A 20 g AS/ha) and in data set [6] (dose A 40 g AS/ha) were 99%, 100% and 100%, respectively.

Consider `COc1cc(OC)nc(NC(=O)NS(=O)(=O)c2cc(NC=O)ccc2C(=O)N(C)C)n1` [A8, N-(4,6-Dimethoxypyrimidin-2-ylaminocarbonyl)-2-(N,N-dimethylaminocarbonyl)-5-(N-formylamino)benzenesulfonamide], for which the “Phytotoxicity or herbicidal effect in % SVFA” value in [7] (dose 25 + 12 g AS/ha) worked out at 95%; in data set [7] (dose 50 + 25 g AS/ha) it was 100%. Also, the “Phytotoxicity or herbicidal effect in % ECCG” value is on record as 98% in data set [8] (dose 25 + 12 g AS/ha) and 100% in data set [8] (dose 50 + 25 g AS/ha). For the same compound, the “Phytotoxicity or herbicidal effect in % SOHA” value in [9] (dose 25 + 12 g AS/ha) is recorded as 95%; in [9] (dose 50 + 25 g AS/ha), 98%.

As for `CCC(=O)Nc1ccc(C(=O)N(C)C)c(S(=O)(=O)NC(=O)Nc2nc(OC)cc(OC)n2)c1.[Na]` [A9, N-(4,6-Dimethoxypyrimidin-2-ylaminocarbonyl)-2-(N,N-dimethylaminocarbonyl)-5-(N-propionylamino)benzenesulfonamide sodium salt], the results for the “Phytotoxicity or herbicidal effect in % Corn” value in data set [10] (dose 25 g AS/ha), in data set [10] (dose 50 g AS/ha) and in [10] (dose 100 g AS/ha) were 0%, 15% and 35%, respectively. The “Phytotoxicity or herbicidal effect in % ECCG” value is reported as 99% in [8] (dose 25 g AS/ha) and 100% in data set [8] (dose 50 g AS/ha). Moreover, the “Phytotoxicity or herbicidal effect in % SOHA” value in data set [9] (dose 25 g AS/ha) was 98%; in [9] (dose 50 g AS/ha) it was 100%.

With `COC(=O)c1ccc(CNS(C)(=O)=O)cc1S(=O)(=O)NC(=O)Nc1nc(OC)cc(OC)n1.[Na]` [A10], the “Phytotoxicity Barley” value in data set [1] (dose A 6 g AS/ha) is given as 5%; in [1] (dose A 12 g AS/ha), 15%; in [1] (dose A 25 g AS/ha), 55%. Further, the “Phytotoxicity Wheat” value in data set [2] (dose A 6 g AS/ha) was determined as 15%; in [2] (dose A 12 g AS/ha), 25%; in [2] (dose A 25 g AS/ha), 30%. For the same compound, the “% effect on ALMY” value is on record as 98% in data set [3] (dose A 6 g AS/ha), 100% in data set [3] (dose A 12 g AS/ha) and 100% in data set [3] (dose A 25 g AS/ha). The “% effect on APSP” value in data set [4] (dose A 6 g AS/ha) was 80%; in data set [4] (dose A 12 g AS/ha), 97%; in data set [4] (dose A 25 g AS/ha), 99%. Further, the “% effect on AVFA” value in data set [5] (dose A 6 g AS/ha) was found to be 75%; in [5] (dose A 12 g AS/ha), 85%; in [5] (dose A 25 g AS/ha) it was 90%. Besides, the “% effect on POAN” value in data set [6] (dose A 6 g AS/ha) is 85%; in [6] (dose A 12 g AS/ha), 99%; in data set [6] (dose A 25 g AS/ha), 100%.

Regarding `COC(=O)NCc1ccc(C(=O)OC)c(S(=O)(=O)NC(=O)Nc2nc(OC)cc(OC)n2)c1.[Na]` [A11], the “Phytotoxicity Barley” value was determined as 10% in data set [1] (dose A 6 g AS/ha), 25% in data set [1] (dose A 12 g AS/ha) and 45% in [1] (dose A 25 g AS/ha). Also, the “Phytotoxicity Wheat” value in [2] (dose A 6 g AS/ha) was 5%; in data set [2] (dose A 12 g AS/ha), 20%; in [2] (dose A 25 g AS/ha), 45%. Besides, the entries for the “% effect on ALMY” value in data set [3] (dose A 6 g AS/ha), in [3] (dose A 12 g AS/ha) and in data set [3] (dose A 25 g AS/ha) were 95%, 98% and 100%, respectively. Further, the “% effect on APSP” value in data set [4] (dose A 6 g AS/ha) came to 85%; in data set [4] (dose A 12 g AS/ha) it was 95%; in [4] (dose A 25 g AS/ha) it was 100%. The “% effect on AVFA” value is given as 70% in [5] (dose A 6 g AS/ha), 90% in data set [5] (dose A 12 g AS/ha) and 95% in data set [5] (dose A 25 g AS/ha). For the same compound, the “% effect on POAN” value stood at 90% in data set [6] (dose A 6 g AS/ha), 100% in data set [6] (dose A 12 g AS/ha) and 100% in data set [6] (dose A 25 g AS/ha).

Turning to `COC(=O)c1ccc(CN(C)S(C)(=O)=O)cc1S(=O)(=O)NC(=O)Nc1nc(OC)cc(OC)n1` [A12], the “Phytotoxicity Barley” value worked out at 8% in data set [1] (dose A 6 g AS/ha), 15% in [1] (dose A 12 g AS/ha) and 25% in data set [1] (dose A 25 g AS/ha). The “Phytotoxicity Wheat” value is reported as 5% in [2] (dose A 6 g AS/ha), 10% in data set [2] (dose A 12 g AS/ha) and 10% in data set [2] (dose A 25 g AS/ha). The “% effect on ALMY” value came out at 95% in data set [3] (dose A 6 g AS/ha), 98% in [3] (dose A 12 g AS/ha) and 99% in [3] (dose A 25 g AS/ha). Further, the “% effect on APSP” value in [4] (dose A 6 g AS/ha) is 85%; in [4] (dose A 12 g AS/ha), 95%; in data set [4] (dose A 25 g AS/ha) it was 98%. The “% effect on AVFA” value in data set [5] (dose A 6 g AS/ha) is given as 75%; in [5] (dose A 12 g AS/ha), 85%; in [5] (dose A 25 g AS/ha) it was 90%. Besides, the “% effect on POAN” value in [6] (dose A 6 g AS/ha) is given as 85%; in data set [6] (dose A 12 g AS/ha) it was 92%; in data set [6] (dose A 25 g AS/ha), 99%.

These data come from patent publication US8901036B2, “Combinations of phenylsulfonylurea herbicides and safeners” (Bayer Cropscience AG, priority 1994, dated 2014).
